Patent US4435583A, “2-Halo-substituted monic acid A useful as antibacterial compounds” (Beecham Group p.l.c., priority 1981, dated 1984)
≈ marks a conversion by molar mass, not a printed value.

Tests used:
Type in all cases: cell-based
M. suipneumoniae NB12 = assay: In vitro anti-mycoplasmal MIC; settings: Friis broth, 0.9% agarose, 6 days, 37° C.
M. suipneumoniae JF435 = assay: In vitro anti-mycoplasmal MIC; settings: Friis broth, 0.9% agarose, 6 days, 37° C.
M. suipneumoniae HK(2) = assay: In vitro anti-mycoplasmal MIC; settings: Friis broth, 0.9% agarose, 6 days, 37° C.
M. suipneumoniae Str.11 = assay: In vitro anti-mycoplasmal MIC; settings: Friis broth, 0.9% agarose, 6 days, 37° C.
[1] = system: M. suipneumoniae J2206/183b; assay: In vitro anti-mycoplasmal MIC; settings: Friis broth, 0.9% agarose, 6 days, 37° C.
M. suipneumoniae MS16 = assay: In vitro anti-mycoplasmal MIC; settings: Mesomycoplasma hyopneumoniae, MS16, 144 h, Friis broth, 0.9% agarose, 6 days, 37° C.
[2] = system: M. suipneumoniae PW/C/210; assay: In vitro anti-mycoplasmal MIC; settings: Mesomycoplasma hyopneumoniae, 144 h, Friis broth, 0.9% agarose, 6 days, 37° C.
M. suipneumoniae LABER = assay: In vitro anti-mycoplasmal MIC; settings: Mesomycoplasma hyopneumoniae, 144 h, Friis broth, 0.9% agarose, 6 days, 37° C.
M. suipneumoniae UCD 1 = assay: In vitro anti-mycoplasmal MIC; settings: Friis broth, 0.9% agarose, 6 days, 37° C.
M. suipneumoniae TAM 6N = assay: In vitro anti-mycoplasmal MIC; settings: Friis broth, 0.9% agarose, 6 days, 37° C.
[3] = system: M. suipneumoniae NCTC 10110; assay: In vitro anti-mycoplasmal MIC; settings: Friis broth, 0.9% agarose, 6 days, 37° C.
M. hyorhinis ATCC 23234 = assay: In vitro anti-mycoplasmal MIC; settings: Mesomycoplasma hyorhinis, ATCC23234, 144 h, Friis broth, 0.9% agarose, 6 days, 37° C.
M. hyorhinis ATCC 25021 = assay: In vitro anti-mycoplasmal MIC; settings: Mesomycoplasma hyorhinis, ATCC25021, 144 h, Friis broth, 0.9% agarose, 6 days, 37° C.
[4] = system: M. hyosynoviae ATCC 25591; assay: In vitro anti-mycoplasmal MIC; settings: 144 h, Friis broth, 0.9% agarose, 6 days, 37° C.
M. bovis NCTC 10131 = assay: microbe, parasite or virus in culture; settings: Mycobacterium tuberculosis variant bovis, NCTC10131, 144 h
[5] = system: M. bovigenitalium ATCC 14173; assay: In vitro anti-mycoplasmal MIC; settings: 144 h, Friis broth, 0.9% agarose, 6 days, 37° C.
M. dispar NCTC 10125 = assay: In vitro anti-mycoplasmal MIC; settings: 144 h, Friis broth, 0.9% agarose, 6 days, 37° C.
M. gallisepticum S6 = assay: In vitro anti-mycoplasmal MIC; settings: Mycoplasmoides gallisepticum, 144 h, Friis broth, 0.9% agarose, 6 days, 37° C., read-out: MIC
Bord. bronchiseptica B08 = assay: MIC against veterinary bacteria; settings: Bordetella bronchiseptica, B08, 18 h, Diagnostic Sensitivity Test Agar, 37° C., read-out: MIC
Protocol: (§1) The values were determined using a two fold serial dilutions in Diagnostic Sensitivity Test Agar with an inoculum of 10^4 organisms and incubation for 18 hours at 37° C.

Bord. bronchiseptica B09 = assay: MIC against veterinary bacteria; settings: Diagnostic Sensitivity Test Agar, 18 hours, 37° C.
Protocol: as §1

[6] = system: Corynebacterium pyogenes CY1; assay: MIC against veterinary bacteria; settings: Rhodococcus (subgen. Prescottella) equi, Diagnostic Sensitivity Test Agar, 18 hours, 37° C., read-out: MIC
Protocol: as §1

E. coli E1 = assay: MIC against veterinary bacteria; settings: Escherichia coli, Diagnostic Sensitivity Test Agar, 18 hours, 37° C., read-out: MIC
Protocol: as §1

E. coli NCTC 10418 = assay: MIC against veterinary bacteria; settings: Escherichia coli, NCTC10418, Diagnostic Sensitivity Test Agar, 18 hours, 37° C., read-out: MIC
Protocol: as §1

[7] = system: Erysipelothrix rhusiopathiae NCTC 8163; assay: MIC against veterinary bacteria; settings: NCTC8163, Diagnostic Sensitivity Test Agar, 18 hours, 37° C., read-out: MIC
Protocol: as §1

Past. haemolytica PA5 = assay: MIC against veterinary bacteria; settings: Diagnostic Sensitivity Test Agar, 18 hours, 37° C.
Protocol: as §1

Past. multocida PA1 = assay: MIC against veterinary bacteria; settings: Diagnostic Sensitivity Test Agar, 18 hours, 37° C.
Protocol: as §1

Past. multocida PA2 = assay: MIC against veterinary bacteria; settings: Diagnostic Sensitivity Test Agar, 18 hours, 37° C.
Protocol: as §1

S. dublin S7 = assay: MIC against veterinary bacteria; settings: Salmonella enterica, Diagnostic Sensitivity Test Agar, 18 hours, 37° C., read-out: MIC
Protocol: as §1

S. typhimurium S18 = assay: MIC against veterinary bacteria; settings: Salmonella enterica, Diagnostic Sensitivity Test Agar, 18 hours, 37° C., read-out: MIC
Protocol: as §1

Staph. aureus 152 = assay: MIC against veterinary bacteria; settings: Diagnostic Sensitivity Test Agar, 18 hours, 37° C.
Protocol: as §1

Staph. aureus B4 = assay: MIC against veterinary bacteria; settings: Diagnostic Sensitivity Test Agar, 18 hours, 37° C.
Protocol: as §1

Staph. aureus Oxford = assay: MIC against veterinary bacteria; settings: Diagnostic Sensitivity Test Agar, 18 hours, 37° C.
Protocol: as §1

Strep. agalactiae SPA1 = assay: MIC against veterinary bacteria; settings: Diagnostic Sensitivity Test Agar, 18 hours, 37° C.
Protocol: as §1

Strep. dysgalactiae SPD1 = assay: MIC against veterinary bacteria; settings: Diagnostic Sensitivity Test Agar, 18 hours, 37° C.
Protocol: as §1

[8] = system: Strep. suis (group D) SPS11; assay: MIC against veterinary bacteria; settings: Diagnostic Sensitivity Test Agar, 18 hours, 37° C.
Protocol: as §1

Strep. uberis SPU1 = assay: MIC against veterinary bacteria; settings: Strep. uberis SPU1; Diagnostic Sensitivity Test Agar; 18 hours, 37° C.
Protocol: as §1

[9] = system: Haemophilus influenzae Q1; assay: MIC against human bacteria; settings: Haemophilus influenzae, Q1, 18 h, nutrient agar, 5% chocolated horse blood, 37° C.
Protocol: (§2) The values were determined by serial dilutions in nutrient agar with 5% chocolated horse blood after incubations for 18 hours at 37° C.

Staph. aureus W2827 = assay: MIC against human bacteria; settings: nutrient agar, 5% chocolated horse blood, 18 hours, 37° C.
Protocol: as §2

Strep. faecalis I = assay: MIC against human bacteria; settings: Enterococcus faecalis, nutrient agar, 5% chocolated horse blood, 18 hours, 37° C., read-out: MIC
Protocol: as §2

## CCOC(=O)C(F)=C(C)CC1OCC(CC2OC2C(C)C(C)O)C(O)C1O [Example 1, Ethyl-4-[5S-(2S,3S-epoxy-5S-hydroxy-4S-methylhexyl)-3R, 4R-dihydroxytetrahydropyran-2S-yl]-2-fluoro-3-methylbut-2(Z)-enoate]
M. suipneumoniae NB12
  MIC: 0.5 µg/mL (≈ 1.28 µM)
M. suipneumoniae JF435
  MIC: 0.5 µg/mL (≈ 1.28 µM)
M. suipneumoniae HK(2)
  MIC: 0.5 µg/mL (≈ 1.28 µM)
M. suipneumoniae Str.11
  MIC: 0.5 µg/mL (≈ 1.28 µM)
[1]
  MIC: 0.5 µg/mL (≈ 1.28 µM)
M. suipneumoniae MS16
  MIC: 0.25 µg/mL (≈ 0.64 µM)
[2]
  MIC: 0.25 µg/mL (≈ 0.64 µM)
M. suipneumoniae LABER
  MIC: 0.25 µg/mL (≈ 0.64 µM)
M. suipneumoniae UCD 1
  MIC: 0.5 µg/mL (≈ 1.28 µM)
M. suipneumoniae TAM 6N
  MIC: 0.5 µg/mL (≈ 1.28 µM)
[3]
  MIC: 0.5 µg/mL (≈ 1.28 µM)
M. hyorhinis ATCC 23234
  MIC: 0.25 µg/mL (≈ 0.64 µM)
M. hyorhinis ATCC 25021
  MIC: 0.25 µg/mL (≈ 0.64 µM)
[4]
  MIC: 0.25 µg/mL (≈ 0.64 µM)
M. bovis NCTC 10131
  MIC: 0.025 µg/mL (≈ 0.064 µM)
[5]
  MIC: 0.025 µg/mL (≈ 0.064 µM)
M. dispar NCTC 10125
  MIC: 0.1 µg/mL (≈ 0.256 µM)
M. gallisepticum S6
  MIC: 10 µg/mL (≈ 25.6 µM)
Bord. bronchiseptica B08
  MIC: 80 µg/mL (≈ 205 µM)
Bord. bronchiseptica B09
  MIC: 20.0 µg/mL (≈ 51.2 µM)
[6]
  MIC: 80 µg/mL (≈ 205 µM)
E. coli E1
  MIC: > 80 µg/mL
E. coli NCTC 10418
  MIC: > 80 µg/mL
[7]
  MIC: 80 µg/mL (≈ 205 µM)
Past. haemolytica PA5
  MIC: 5.0 µg/mL (≈ 12.8 µM)
Past. multocida PA1
  MIC: 1.3 µg/mL (≈ 3.33 µM)
Past. multocida PA2
  MIC: 0.63 µg/mL (≈ 1.61 µM)
S. dublin S7
  MIC: > 80 µg/mL
S. typhimurium S18
  MIC: > 80 µg/mL
Staph. aureus 152
  MIC: 0.63 µg/mL (≈ 1.61 µM)
Staph. aureus B4
  MIC: 0.63 µg/mL (≈ 1.61 µM)
Staph. aureus Oxford
  MIC: 0.63 µg/mL (≈ 1.61 µM)
Strep. agalactiae SPA1
  MIC: 2.5 µg/mL (≈ 6.4 µM)
Strep. dysgalactiae SPD1
  MIC: 1.3 µg/mL (≈ 3.33 µM)
[8]
  MIC: 20.0 µg/mL (≈ 51.2 µM)
Strep. uberis SPU1
  MIC: 0.63 µg/mL (≈ 1.61 µM)
[9]
  MIC: 0.1 µg/mL (≈ 0.256 µM)
Staph. aureus W2827
  MIC: 1.0 µg/mL (≈ 2.56 µM)
Strep. faecalis I
  MIC: > 100 µg/mL
